From patent US9861640B2, “Medicament for treatment of Alzheimer's disease” (KEMPHYS LTD., priority 2013, dated 2018)

Columns and labels:
[1] = normal male rats; 2 h after subcutaneous administration at 1 mg/kg; cited from earlier work
[2] = tested on: RA response element (RARE); assay: RARE luciferase reporter gene assay in Neuro2a cells; type: cell-based, mouse; details: Am80 0.2-5 μM, with or without HX630 5 μM, 24 h
Procedure: Since the effective concentration of Am80 in vivo has not been determined, we considered that a relatively high concentration of Am80 should be used in the in vitro study in order to ensure adequate stimulation. […] Moreover, the combination of HX630 (5 μM) with Am80 in the range of 0.2-5 μM also had little effect. Therefore, the concentrations of Am80 and HX630 were both set at 5 μM for the in vitro study.
Neuro2a cells were seeded in 24-well plates (2×10^5 cells/well) and transfected with 0.2 μg of pGL3-RARE-Luc (#13468; Addgene) or pGL3-Luc vector (Promega) and 0.05 μg of Renilla luciferase vector (phRL-TK) (Promega), using Effectene reagent (Qiagen) according to the manufacturer's protocol. Five hours after transfection, cells were exposed to Am80 (5 μM) and/or HX630 (5 μM) in the medium for 24 h. Luciferase activities were determined in cell lysates. Firefly luciferase activity was normalized to that of Renilla luciferase for each well.

[3] = molecular target: RARγ (Homo sapiens, UniProt P13631); details: [50]; cited from earlier work
Sequence of RARγ (P13631 whole entry, species assumed): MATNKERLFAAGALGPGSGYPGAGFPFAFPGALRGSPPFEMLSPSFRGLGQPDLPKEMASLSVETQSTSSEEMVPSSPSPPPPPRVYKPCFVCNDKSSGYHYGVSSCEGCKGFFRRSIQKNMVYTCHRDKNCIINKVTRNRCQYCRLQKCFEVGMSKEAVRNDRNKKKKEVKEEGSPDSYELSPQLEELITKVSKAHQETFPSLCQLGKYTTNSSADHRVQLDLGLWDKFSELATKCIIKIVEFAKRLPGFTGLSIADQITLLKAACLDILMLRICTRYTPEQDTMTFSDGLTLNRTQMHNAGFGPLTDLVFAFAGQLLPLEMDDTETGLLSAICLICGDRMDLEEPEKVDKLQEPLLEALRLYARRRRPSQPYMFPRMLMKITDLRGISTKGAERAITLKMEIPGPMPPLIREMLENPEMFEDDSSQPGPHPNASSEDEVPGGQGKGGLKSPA

[4] = tested on: APP23 mice; details: earlier study [15]; oral Am80 0.5 mg/kg/d for 14 weeks; 5-month-old APP23 mice; cited from earlier work
[5] = tested on: CD36; assay: Immunoblot of CD36 in rat primary microglia; type: cell-based; details: 5 μM each, 48 h; relative to vehicle-treated cells
Excerpt: Primary microglia (type 1) were harvested from primary mixed glial cell cultures prepared from neonatal Wistar rat pups, as previously reported. Mouse microglial cell line MG5 and mouse glial cell line A1 were maintained as previously described. Mouse neuroblastoma cell line N1E-115 and Neuro 2a (American Type Culture Collection, Manassas, Va., USA) were maintained in Dulbecco's modified Eagle's medium (DMEM) supplemented with 10% fetal bovine serum (FBS), 20 U/ml penicillin (Invitrogen, Gaithersburg, Md., USA), and 20 μg/ml streptomycin (Invitrogen). Primary rat microglia were treated with Am80 (5 μM) and/or HX630 (5 μM) in the presence and absence of GW9662 (10 μM) for 48 h in Eagle's MEM supplemented with 10% FBS and 0.2% glucose. MG5 cells and A1 cells were treated with Am80 (5 μM) and/or HX630 (5 μM) for 48 h in DMEM containing 10% FBS. […]
Rat primary microglia and mouse microglial MG5 cells (5×10^6 cells per 100-mm dish) were homogenized in RIPA buffer [10 mM Hepes-NaOH (pH 7.4) containing 150 mM NaCl, 1 mM EDTA, 1% Triton X-100, 0.5% sodium deoxycholate, 0.1% SDS, 1 mM PMSF, 1 mg/ml leupeptin. […] Bound horseradish peroxidase-labeled antibodies were then detected via chemiluminescence (an ECL kit; Pierce, Rockford, Ill., USA). Protein concentrations were determined with the BCA Protein Assay Reagent (Pierce) and Bradford Protein Assay Reagent (Pierce).

SMILES | cerebral tissue content of Am80 [1] | RARE-luciferase activity in Neuro2a cells [2] | binding to RARγ [3] | behavioral benefits [4] | CD36 expression in rat primary microglia [5] [fold]
CC1(C)CCC(C)(C)c2cc(NC(=O)c3ccc(C(=O)O)cc3)ccc21 [Am80, 4-{(5,6,7,8-tetrahydro-5,5,8,8-tetramethyl-2-naphthalenyl)carbamoyl}benzoic acid] | around 100 pmol/g tissue | hardly altered | hardly binds | did not detect behavioral benefits | –
CN1c2ccccc2N=C(c2ccc(C(=O)O)cc2)c2cc3c(cc21)C(C)(C)CCC3(C)C [HX630, 4-[5H-2,3-(2,5dimethyl-2,5-hexano)-5-methyldibenzo[b,e]-diazepin-11-yl]benzoic acid] | – | – | – | – | 1.3
